Experimental findings from article PMC6804233, “Design and Synthesis of Novel 1,3-Thiazole and 2-Hydrazinyl-1,3-Thiazole Derivatives as Anti-Candida Agents: In Vitro Antifungal Screening, Molecular Docking Study, and Spectroscopic Investigation of their Binding Interaction with Bovine Serum Albumin” (Molecules, 2019) are described below.

The target of this assay is T1, bovine serum albumin (BSA) (Bos taurus, UniProt P02769).
T1 construct: gene ALB; BSA fraction V
The experiment in a line: Intrinsic tryptophan fluorescence quenching titration (Stern–Volmer; double-log plot for Kb), pH […], room temperature. The following applies: read-out: Kb × 10^5 (M^-1) (converted). The format is binding.

T1 sequence (P02769 25-607): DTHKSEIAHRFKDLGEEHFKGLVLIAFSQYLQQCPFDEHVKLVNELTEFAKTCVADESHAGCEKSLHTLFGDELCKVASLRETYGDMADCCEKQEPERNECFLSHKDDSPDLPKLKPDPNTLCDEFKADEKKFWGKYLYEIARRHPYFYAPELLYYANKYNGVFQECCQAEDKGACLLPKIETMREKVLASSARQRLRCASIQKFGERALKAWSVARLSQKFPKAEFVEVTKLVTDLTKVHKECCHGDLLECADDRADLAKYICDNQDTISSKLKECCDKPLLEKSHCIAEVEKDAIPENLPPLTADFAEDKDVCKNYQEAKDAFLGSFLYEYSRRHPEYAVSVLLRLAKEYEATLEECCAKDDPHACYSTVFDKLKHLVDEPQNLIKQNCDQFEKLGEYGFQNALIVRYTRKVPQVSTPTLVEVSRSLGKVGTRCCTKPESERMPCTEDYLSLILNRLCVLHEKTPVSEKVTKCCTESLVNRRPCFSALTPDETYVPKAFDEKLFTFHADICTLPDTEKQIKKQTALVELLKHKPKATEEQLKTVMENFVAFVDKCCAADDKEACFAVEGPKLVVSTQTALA

`Cc1ccc(-c2csc(NN=C(COc3cc(C)ccc3C(C)C)c3ccccc3)n2)cc1` [7e, 2-(2-(2-(2-isopropyl-5-methylphenoxy)-1-phenylethylidene)hydrazineyl)-4-(p-tolyl)thiazole]: the Kd was 4.42 µM.
